Results as given in patent publication US20230060873A1, “COMPOUNDS AND METHODS FOR FORMING ION CHANNELS IN BIOLOGICAL MEMBRANES” (Washington University, priority 2021, published 2023).

Key:
[1] = Reversal potential and permeability ratio under bi-ionic conditions (voltage ramps); assay type: biochemical; settings: 10 μM; for permeability ratio pK/pNa: Goldman-Hodgkin-Katz equation from reversal potential; for estimated reversal potential: internal 180 mM NaCl, 20 mM KCl, external 20 mM NaCl, 180 mM KCl, n=6
Experimental: This can be determined by measuring the reversal potential under bi-ionic conditions and by applying rapid voltage ramps to measure reversal from open channels. For the determination of permeability ratios, a voltage protocol (detailed below) was applied 100 times to the membrane, while a gradient of ions was set through the membrane (internal solution: 180 mM NaCl, 20 mM KCl, 30 mM HEPES, pH adjusted to 7.4 with NaOH; external solution: 20 mM NaCl, 180 mM KCl, 30 mM HEPES, pH adjusted to 7.4 with NaOH). The protocol started from the holding potential (0 mV), followed by a jump to 100 mV during 100 ms, then a ramp of 1000 ms until −100 mV, maintenance of the voltage at −100 mV for 100 ms before returning to the initial 0 mV holding potential. Calculation of the variance at every isochrone allowed determination of the reversal potential (Vrev) as the voltage at which the variance is minimized. The permeability ratio for
was calculated from the Goldman-Hodgkin-Katz (GHK) equation by assuming that reversal potential is the equilibrium membrane voltage reached by a selective membrane in the presence of that gradient of ions. This leads to the equation 1: […]
where F is the Faraday constant, R is the gas constant, T is the absolute temperature, [K^+]i, and [K^+]e are the internal and external K^+ concentrations, respectively, and [Na^+]i, and [Na^+]e are the internal and external Na^+ concentrations, respectively.
Multiple voltage ramps (N=100) from +100 mV to −100 mV were applied in the presence of 10 μM 6-A-10 (FIG. 18) and 10 μM 6-O-10 (FIG. 20). The reversal potential for each case was determined as that voltage which produces the minimum of variance (FIGS. 19 and 21). In FIGS. 19 and 21, the curves are the variance calculated from experiments in FIGS. 18 and 20, respectively.
In these experiments, the internal concentration of Na^+ in the pipette was 9-fold higher than the external concentration, whereas the K^+ gradient was reversed (internal solution: 180 mM NaCl, 20 mM KCl, 30 mM HEPES, pH 7.4; external solution: 20 mM NaCl, 180 mM KCl, 30 mM HEPES, pH 7.4). If the channels are K^+ selective, the reversal potential will be close to the K^+ Nernst potential, which is 58 mV. In contrast, if the channels are highly Na^+ selective, then the reversal potential will be close to the Na^+ Nernst potential (−58 mV).

B. subtilis membranes = experiment: DiSC3(5) depolarization assay, MAcBCE/MAkBCE; assay type: cell-based, Bacillus subtilis; settings: 2 μM compound, 60 mM KCl, NaCl or NMDG-Cl; for change in DiSC3(5) fluorescence (membrane depolarization): 25° C, 10 minutes
Experimental: A 2 mL liquid culture of transformed B. subtilis cells was grown at 37° C. in LB medium supplemented with 5 μg/mL kanamycin until OD600=0.6 was reached. The cells were collected by centrifugation at 2000 rpm over 3 min. The bacteria were washed twice with an NMDG-MeSO3 solution (100 mM NMDG, 10 mM HEPES, pH adjusted to 7.4 with methane sulfonic acid). […] The working dye solution was a 200 μM solution of DiSC3(5) (3,3′-dipropylthiadicarbocyanine iodide; Tokyo Chemical Industry) in DMSO. A series of 2 M solutions of NMDG-Cl, NaCl and KCl were prepared containing 10 mM HEPES; the pH was adjusted to pH 7.4 with NMDG, NaOH or KOH, respectively, to avoid any pH changes after their addition. The experiment was initiated with 3 mL of NMDG-MeSO3 in a quartz cuvette, then 5 μL of the dye solution was added (timepoint t1, 50 sec) for a 0.3 μM final concentration by the end of experiment. This was followed by the addition of 100 μL of the B. subtilis suspension (timepoint t2, 100 sec). After 150 sec (timepoint t3, 250 sec), the fluorescence stabilized to a minimum intensity and 100 μL of the 2 M NMDG-Cl, NaCl or KCl solution was added to reach ˜60 mM final concentration of the salt. The final step was the addition 0.64 μL of a 10 mM stock solution of the desired MAcBCE or MAkBCE compound in TFE (timepoint t4, 400 sec), for a final concentration of 2 μM. Negative controls were performed by adding the same volume of pure TFE to the cuvette at timepoint t4. Fluorescence intensity was recorded each second using a Horiba Fluoromax 4 spectrometer (λexcitation=640 nm; λemission=670 nm). The solution inside the cuvette was vigorously mixed throughout the experiment by using a magnetic stirrer and the temperature was kept constant at 25° C. For purposes of normalization, the fluorescence intensity was divided by the fluorescence level just before timepoint t2.
To determine whether MAcBCE or MAkBCE compounds catalyse ion-selective flux, a set of highly bioactive members bearing ten-carbon chain lengths were tested for their ability to depolarize B. subtilis membranes using a test based on the fluorescent dye 3,3-dipropylthiadicarbocyanine (DiSC3(5)). This set of compounds were selected as four of the most toxic members of the MAcBCE and MAkBCE compound library (5-O-10, 5-A-10, 6-O-10, and 6-A-10; FIG. 3) belong to this group and all are soluble in TFE. The two non-toxic benzo(12-crown-4) scaffold members (4-O-10 and 4-A-10; FIG. 3) were used as controls.
FIGS. 4 and 5 show the time course of DiSC3(5) fluorescence due to the addition of 2 μM 6-A-10 (FIG. 4) and 6-O-10 (FIG. 5). The average of the final fluorescence values (mean±S.E.M.) of at least three experiments are shown in FIGS. 4 and 5 and are similarly plotted for 4-A-10 (FIG. 6), 5-A-10 (FIG. 7), 6-A-10 (FIG. 8), 4-O-10 (FIG. 9), 5-O-10 (FIG. 10), and 6-O-10 (FIG. 11). Experiments were performed in a NMDG-MeSO3 solution (100 mM NMDG, 10 mM HEPES, pH adjusted to 7.4 with methane sulfonic acid). The events are: t1, addition of dye; t2, addition of B. subtilis; t3, addition of a 2 M NMDG-Cl, 2 M NaCl or a 2 M KCl solution up to a final concentration of 60 mM; t4, addition of each MAcBCE or MAkBCE compound up to 2 μM. Experiments were repeated at least four times per condition and normalized relative to the fluorescence intensity just before the addition of cells.
The potentiometric dye DiSC3(5) was used to measure the ability of MAcBCE and MAkBCE compounds to catalyse ion-selective transport. DiSC3(5) undergoes membrane voltage-dependent partitioning between the intracellular and the extracellular medium. DiSC3(5) accumulates within a cell with a polarized membrane (negatively charged inside the cell) and is released when the cell membrane is depolarized (positively charged inside the cell). The membrane voltage in B. subtilis is roughly −120 mV, leading to DiSC3(5) accumulation in the bacteria (timepoint t2 in FIG. 4A-B). […]

Structure (SMILES) | permeability ratio pK/pNa [1] | estimated reversal potential [1] | change in DiSC3(5) fluorescence (membrane depolarization) (B. subtilis membranes) | kinetics of the depolarization, ion dependence (B. subtilis membranes)
CCCCCCCCCCc1ccc2c(c1)OCCOCCOCCOCCOCCO2 [Compound 6-A-10, 18-decyl-2,3,5,6,8,9,11,12,14,15-decahydrobenzo[b][1,4,7,10,13,16]hexaoxacyclooctadecine] | 1.4 | 8.0±0.8 mV | clear increase in fluorescence | –
CCCCCCCCCC(=O)c1ccc2c(c1)OCCOCCOCCOCCOCCO2 [Compound 6-O-10, 1-(2,3,5,6,8,9,11,12,14,15-decahydrobenzo[b][1,4,7,10,13,16]hexaoxacyclooctadecin-18-yl)decan-1-one] | 1.3 | 6.5±0.6 mV | clear increase in fluorescence | fastest in presence of K^+ followed by Na^+ and then NMDG^+
